Test results as given in PubChem BioAssay (NCI).
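These data come from cells grown in 96-well plates and exposed to compound for 48 hours at five concentrations. TGI marks complete inhibition of growth.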

Key:
Assay in all cases: NCI-60 cell line screen, 48 h
OVCAR-5 ovarian = test system: OVCAR-5 ovarian
COLO 205 colon = test system: COLO 205 colon
EKVX NSCLC = test system: EKVX NSCLC
SF-295 CNS = test system: SF-295 CNS
RXF 393 renal = test system: RXF 393 renal
HOP-62 NSCLC = test system: HOP-62 NSCLC
A549 NSCLC = test system: A549 NSCLC
KM12 colon = test system: KM12 colon
A498 renal = test system: A498 renal
SNB-78 CNS = test system: SNB-78 CNS
UACC-62 melanoma = test system: UACC-62 melanoma
M14 melanoma = test system: M14 melanoma
NCI-H226 lung = test system: NCI-H226 lung
M19-MEL melanoma = test system: M19-MEL melanoma
HCT-116 colon = test system: HCT-116 colon
KM20L2 colon = test system: KM20L2 colon
UO-31 renal = test system: UO-31 renal
NCI/ADR-RES ovarian = test system: NCI/ADR-RES ovarian
MCF7 breast = test system: MCF7 breast
DMS 273 small cell lung = test system: DMS 273 small cell lung

`CC(=O)OC1/C=C(\C)C(OC(C)=O)C/C=C(/C)CCC2C(/C=C/C1=O)C2(C)C` (configuration not stated) gave a TGI (OVCAR-5 ovarian) greater than 100 µM, a TGI (COLO 205 colon) greater than 100 µM and a TGI (EKVX NSCLC) greater than 100 µM. For the same compound, the TGI (SF-295 CNS) was greater than 100 µM, the TGI (RXF 393 renal) was greater than 100 µM and the TGI (HOP-62 NSCLC) was greater than 100 µM. The TGI (A549 NSCLC) was greater than 100 µM, the TGI (KM12 colon) was greater than 100 µM and the TGI (A498 renal) was greater than 100 µM. It also gave a TGI (SNB-78 CNS) greater than 100 µM, a TGI (UACC-62 melanoma) greater than 100 µM and a TGI (M14 melanoma) greater than 100 µM. It also gave a TGI (NCI-H226 lung) greater than 100 µM, a TGI (M19-MEL melanoma) greater than 100 µM and a TGI (HCT-116 colon) greater than 100 µM. For the same compound, the TGI (KM20L2 colon) was greater than 100 µM and the TGI (UO-31 renal) was greater than 100 µM.

Compound `NC(CCCCCP(=O)(c1ccccc1)C1C=CC=CC1)C(=O)O` (configuration not stated) has a TGI (OVCAR-5 ovarian) greater than 100 µM, a TGI (NCI/ADR-RES ovarian) greater than 100 µM and a TGI (COLO 205 colon) greater than 100 µM. For the same compound, the TGI (MCF7 breast) was greater than 100 µM, the TGI (EKVX NSCLC) was greater than 100 µM and the TGI (SF-295 CNS) was greater than 100 µM. It also gave a TGI (RXF 393 renal) greater than 100 µM, a TGI (A549 NSCLC) greater than 100 µM and a TGI (KM12 colon) greater than 100 µM. For the same compound, the TGI (UACC-62 melanoma) was greater than 100 µM, the TGI (M14 melanoma) was greater than 100 µM and the TGI (HCT-116 colon) was greater than 100 µM. The TGI (UO-31 renal) was greater than 100 µM.

Work on `CCCC(=O)OCC1OC(n2ccc(N)nc2=O)C(OC(=O)CCC)C1OC(=O)CCC` (configuration not stated) yielded a TGI (OVCAR-5 ovarian) greater than 100 µM, a TGI (NCI/ADR-RES ovarian) greater than 100 µM and a TGI (COLO 205 colon) greater than 100 µM. It also gave a TGI (MCF7 breast) greater than 100 µM, a TGI (EKVX NSCLC) of 16.8 µM and a TGI (SF-295 CNS) greater than 100 µM. The TGI (RXF 393 renal) was greater than 100 µM, the TGI (HOP-62 NSCLC) was 8.55 µM and the TGI (A549 NSCLC) was greater than 100 µM. It also gave a TGI (KM12 colon) greater than 100 µM, a TGI (A498 renal) greater than 100 µM and a TGI (DMS 273 small cell lung) greater than 100 µM. It also gave a TGI (SNB-78 CNS) greater than 100 µM, a TGI (UACC-62 melanoma) greater than 100 µM and a TGI (NCI-H226 lung) greater than 100 µM. For the same compound, the TGI (M19-MEL melanoma) was greater than 100 µM, the TGI (HCT-116 colon) was greater than 100 µM and the TGI (KM20L2 colon) was greater than 100 µM. The TGI (UO-31 renal) was greater than 100 µM.

For `CC(C)Cc1ccc(C(C)C(=O)N2CCN(/C=C/c3ccccc3)CC2)cc1` (configuration not stated), the TGI (OVCAR-5 ovarian) was 26.9 µM, the TGI (NCI/ADR-RES ovarian) was 28.2 µM and the TGI (COLO 205 colon) was 29.5 µM. It also gave a TGI (MCF7 breast) of 33.7 µM, a TGI (EKVX NSCLC) of 35 µM and a TGI (SF-295 CNS) of 32.2 µM. For the same compound, the TGI (RXF 393 renal) was 30.8 µM, the TGI (HOP-62 NSCLC) was 29.7 µM and the TGI (A549 NSCLC) was 29.7 µM. It also gave a TGI (KM12 colon) of 31.7 µM, a TGI (A498 renal) of 31.8 µM and a TGI (DMS 273 small cell lung) of 24.2 µM. The TGI (SNB-78 CNS) was 46.7 µM, the TGI (UACC-62 melanoma) was 26.3 µM and the TGI (NCI-H226 lung) was 18.1 µM. The TGI (M19-MEL melanoma) was 29.7 µM, the TGI (HCT-116 colon) was 26.3 µM and the TGI (KM20L2 colon) was 29.9 µM. It also gave a TGI (UO-31 renal) of 24 µM.

For `COc1ccc(/C=C2\CCNC2=O)cc1`, the TGI (OVCAR-5 ovarian) was greater than 100 µM, the TGI (NCI/ADR-RES ovarian) was greater than 100 µM and the TGI (COLO 205 colon) was greater than 100 µM. The TGI (MCF7 breast) was greater than 100 µM, the TGI (EKVX NSCLC) was greater than 80.9 µM and the TGI (SF-295 CNS) was greater than 100 µM. It also gave a TGI (HOP-62 NSCLC) greater than 100 µM, a TGI (A549 NSCLC) greater than 100 µM and a TGI (KM12 colon) greater than 100 µM. For the same compound, the TGI (A498 renal) was greater than 100 µM, the TGI (DMS 273 small cell lung) was greater than 100 µM and the TGI (SNB-78 CNS) was greater than 100 µM. The TGI (UACC-62 melanoma) was greater than 100 µM, the TGI (NCI-H226 lung) was greater than 100 µM and the TGI (M19-MEL melanoma) was greater than 100 µM. For the same compound, the TGI (HCT-116 colon) was greater than 100 µM, the TGI (KM20L2 colon) was greater than 100 µM and the TGI (UO-31 renal) was greater than 100 µM.

Work on `O=c1sc2ccccc2n1CC1CS1` (configuration not stated) yielded a TGI (OVCAR-5 ovarian) greater than 100 µM, a TGI (COLO 205 colon) greater than 100 µM and a TGI (EKVX NSCLC) greater than 100 µM. The TGI (SF-295 CNS) was greater than 100 µM, the TGI (RXF 393 renal) was greater than 100 µM and the TGI (HOP-62 NSCLC) was greater than 100 µM. It also gave a TGI (A549 NSCLC) greater than 100 µM, a TGI (KM12 colon) greater than 100 µM and a TGI (DMS 273 small cell lung) greater than 100 µM. For the same compound, the TGI (UACC-62 melanoma) was greater than 100 µM, the TGI (M14 melanoma) was greater than 100 µM and the TGI (NCI-H226 lung) was greater than 100 µM. For the same compound, the TGI (M19-MEL melanoma) was greater than 100 µM, the TGI (HCT-116 colon) was greater than 100 µM and the TGI (KM20L2 colon) was greater than 100 µM. For the same compound, the TGI (UO-31 renal) was greater than 100 µM.

For `O=C1c2cccc3c2C(=O)c2c(cccc21)OCCOCCOCCOCCO3`, the TGI (OVCAR-5 ovarian) was greater than 100 µM, the TGI (EKVX NSCLC) was greater than 100 µM and the TGI (SF-295 CNS) was greater than 100 µM. For the same compound, the TGI (RXF 393 renal) was greater than 100 µM, the TGI (HOP-62 NSCLC) was greater than 100 µM and the TGI (A549 NSCLC) was greater than 100 µM. For the same compound, the TGI (DMS 273 small cell lung) was greater than 100 µM, the TGI (SNB-78 CNS) was greater than 100 µM and the TGI (UACC-62 melanoma) was greater than 100 µM. It also gave a TGI (M14 melanoma) greater than 100 µM, a TGI (NCI-H226 lung) greater than 100 µM and a TGI (M19-MEL melanoma) greater than 100 µM. It also gave a TGI (HCT-116 colon) greater than 100 µM, a TGI (KM20L2 colon) greater than 100 µM and a TGI (UO-31 renal) of 99.8 µM.

`CCN(CC)CCNc1ccc2nnn3c4ccc(OCCN(CC)CC)cc4c(=O)c1c23` was tested, and the TGI (OVCAR-5 ovarian) was greater than 100 µM, the TGI (NCI/ADR-RES ovarian) was greater than 100 µM and the TGI (COLO 205 colon) was greater than 100 µM. For the same compound, the TGI (MCF7 breast) was greater than 100 µM, the TGI (EKVX NSCLC) was greater than 100 µM and the TGI (SF-295 CNS) was greater than 100 µM. For the same compound, the TGI (RXF 393 renal) was greater than 100 µM, the TGI (HOP-62 NSCLC) was 72.9 µM and the TGI (A549 NSCLC) was greater than 100 µM. The TGI (KM12 colon) was 84.5 µM, the TGI (A498 renal) was greater than 100 µM and the TGI (UACC-62 melanoma) was greater than 100 µM. The TGI (M14 melanoma) was greater than 100 µM, the TGI (HCT-116 colon) was greater than 100 µM and the TGI (UO-31 renal) was greater than 100 µM.

In the case of `O=P(O)(O)CCP(=O)(O)O`, the TGI (OVCAR-5 ovarian) was greater than 100 µM, the TGI (NCI/ADR-RES ovarian) was greater than 100 µM and the TGI (COLO 205 colon) was greater than 100 µM. It also gave a TGI (MCF7 breast) greater than 100 µM, a TGI (EKVX NSCLC) greater than 100 µM and a TGI (SF-295 CNS) greater than 100 µM. For the same compound, the TGI (RXF 393 renal) was greater than 100 µM, the TGI (HOP-62 NSCLC) was greater than 100 µM and the TGI (A549 NSCLC) was greater than 100 µM. It also gave a TGI (KM12 colon) greater than 100 µM, a TGI (A498 renal) greater than 100 µM and a TGI (UACC-62 melanoma) greater than 100 µM. For the same compound, the TGI (M14 melanoma) was greater than 100 µM, the TGI (HCT-116 colon) was greater than 100 µM and the TGI (UO-31 renal) was greater than 100 µM.

`CCOc1ncn(-c2ccc(NC(=S)Nc3ncccn3)cc2)n1` showed a TGI (OVCAR-5 ovarian) greater than 100 µM, a TGI (COLO 205 colon) of 81.7 µM and a TGI (MCF7 breast) greater than 100 µM. The TGI (EKVX NSCLC) was greater than 100 µM, the TGI (SF-295 CNS) was greater than 100 µM and the TGI (HOP-62 NSCLC) was greater than 100 µM. The TGI (A549 NSCLC) was greater than 100 µM, the TGI (KM12 colon) was greater than 100 µM and the TGI (UACC-62 melanoma) was 91 µM. The TGI (M14 melanoma) was 91.3 µM, the TGI (HCT-116 colon) was greater than 100 µM and the TGI (UO-31 renal) was 36 µM.

Work on `O=c1cc[nH]c(=O)[nH]1` yielded a TGI (OVCAR-5 ovarian) greater than 956 µM, a TGI (NCI/ADR-RES ovarian) greater than 562 µM and a TGI (COLO 205 colon) of 384 µM. The TGI (MCF7 breast) was greater than 1000 µM, the TGI (EKVX NSCLC) was 488 µM and the TGI (SF-295 CNS) was greater than 1000 µM. It also gave a TGI (RXF 393 renal) greater than 889 µM, a TGI (HOP-62 NSCLC) greater than 872 µM and a TGI (A549 NSCLC) greater than 1000 µM. For the same compound, the TGI (KM12 colon) was 846 µM, the TGI (DMS 273 small cell lung) was greater than 729 µM and the TGI (SNB-78 CNS) was greater than 1000 µM. The TGI (UACC-62 melanoma) was greater than 1000 µM, the TGI (NCI-H226 lung) was 990 µM and the TGI (M19-MEL melanoma) was greater than 944 µM. For the same compound, the TGI (HCT-116 colon) was greater than 821 µM, the TGI (KM20L2 colon) was greater than 1000 µM and the TGI (UO-31 renal) was greater than 1000 µM.
